Results from patent publication US6737383B1, “Herbicidal oxadiazolidines” (priority 1999, dated 2004).

Key:
cocklebur = assay: Test B pre/postemergence cocklebur; type: in vivo, Xanthium strumarium
Procedure, shortened: (§1)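 Test chemicals in a non-phytotoxic solvent mixture with surfactant were sprayed preemergence onto planted seeds and postemergence onto plants 2 to 18 cm tall (1- to 4-leaf stage). After twelve to sixteen days in a greenhouse, injury was visually rated against untreated controls from 0 (no effect) to 10 (complete control).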

sugar beet = assay: Test B pre/postemergence sugar beet; type: in vivo, Beta vulgaris
Procedure, shortened: as §1

smallflower flatsedge = assay: Test B flood test smallflower flatsedge; type: in vivo, Cyperus difformis
Procedure, shortened: (§2)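 Read-out is a visual response score from 0 (no effect) to 10 (complete control), assigned by comparison with untreated controls. Treatment was applied at the 2-leaf stage, and plants stayed in the greenhouse for twelve to sixteen days before scoring.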

bamyardgrass = assay: Test B flood test barnyardgrass; type: in vivo, Echinochloa crus-galli
Procedure, shortened: as §2

guineagrass = assay: Test D guineagrass; type: in vivo, Panicum maximum; details: Preemergence, 0 to 100 scale
Procedure, shortened: (§3)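 Weed seeds planted in sandy loam; species kept apart in individual pots or compartments. Preemergence tests: treatment to soil surface within one day. Greenhouse growth, then visual injury scoring at 14–21 days (0–100).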

tall mallow = assay: Test D tall mallow; type: in vivo, Malva sylvestris; details: Preemergence, 0 to 100 scale
Procedure, shortened: as §3

winter wheat [1] = assay: Test E winter wheat; type: in vivo, Triticum aestivum; details: Postemergence; for Plant response rating, Wheat (winter): 0 to 100 scale
Procedure, shortened: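 Each compound, carried in a non-phytotoxic solvent blend including surfactant, was applied (postemergence: over the top of young plants at 1- to 4-leaf stage). Plants stayed in the greenhouse about 21 to 28 days before visual comparison with untreated controls.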

blackgrass = assay: Test E blackgrass; type: in vivo, Alopecurus myosuroides; details: Preemergence; for Blackgrass plant response rating (0 to 100 scale): Rate 250 g/ha
green foxtail = assay: Test E green foxtail; type: in vivo, Setaria viridis; details: Preemergence; for Green foxtail plant response rating (0 to 100 scale): Rate 250 g/ha
Italian ryegrass = assay: Test E Italian ryegrass; type: in vivo, Lolium multiflorum; details: Preemergence; for I. Ryegrass plant response rating (0 to 100 scale): Rate 250 g/ha
winter wheat [2] = assay: Test E winter wheat; type: in vivo, Triticum aestivum; details: Preemergence; for Wheat (winter) plant response rating (0 to 100 scale): Rate 250 g/ha
wild oat = assay: Test E wild oat; type: in vivo, Avena fatua; details: Preemergence; for Wild oat plant response rating (0 to 100 scale): Rate 250 g/ha
winter barley = assay: Test E winter barley; type: in vivo, Hordeum vulgare; details: Preemergence; for Barley (winter) plant response rating (0 to 100 scale): Rate 250 g/ha
[3] = Postemergence, Rate 125 g/ha, scale of 0 to 10 where 0 is no effect and 10 is complete control
[4] = Preemergence, Rate 62 g/ha, scale of 0 to 10 where 0 is no effect and 10 is complete control
[5] = Preemergence, Rate 125 g/ha, 0 is no effect, 10 is complete control
[6] = Preemergence, Rate 250 g/ha, scale 0 to 10, 0 is no effect, 10 is complete control
[7] = Preemergence, Rate 500 g/ha, scale 0 to 10 (0 no effect, 10 complete control)
[8] = Rate 62 g/ha, Postemergence, scale of 0 to 10 where 0 is no effect and 10 is complete control
[9] = Rate 250 g/ha, Postemergence, scale 0 to 10, 0 is no effect, 10 is complete control
[10] = Rate 500 g/ha, Postemergence, scale 0 to 10
[11] = Postemergence (flood test species), Rate 125 g/ha, scale of 0 to 10 where 0 is no effect and 10 is complete control
[12] = Rate 62 g/ha, Postemergence section, flood test species, scale of 0 to 10 where 0 is no effect and 10 is complete control
[13] = Rate 250 g/ha, Postemergence (flood test), scale 0 to 10, 0 is no effect, 10 is complete control
[14] = Rate 500 g/ha, listed under Postemergence (flood test species), scale 0 to 10
[15] = Rate 16 g/ha, 0 no injury, 100 complete control
[16] = Rate 32 g/ha, 0 no injury, 100 complete control
[17] = Rate 64 g/ha, 0 no injury, 100 complete control
[18] = Rate 125 g/ha, 0 no injury, 100 complete control
[19] = Rate 62 g/ha, 0 to 100 scale, 0 no effect, 100 complete control
[20] = Rate 125 g/ha, 0 to 100 scale (0 no effect, 100 complete control)
[21] = Preemergence, Rate 500 g/ha, scale of 0 to 10 where 0 is no effect and 10 is complete control
[22] = Rate 500 g/ha, Postemergence, scale 0 to 10, 0 no effect, 10 complete control
[23] = Rate 62 g/ha, headed Pre-emergence (flood test species), scale 0 to 10 (0 no effect, 10 complete control)
[24] = Rate 125 g/ha, Pre-emergence, flood test species, scale 0 to 10 where 0 is no effect and 10 is complete control
[25] = Rate 250 g/ha, Pre-emergence, flood-test species, scale 0 to 10, 0 is no effect, 10 is complete control
[26] = Rate 500 g/ha, Pre-emergence, flood test species, scale 0 to 10 (0 no effect, 10 complete control)
[27] = Rate 31 g/ha, 0 to 100 scale, 0 no effect, 100 complete control
[28] = Rate 500 g/ha, 0 to 100 scale where 0 is no effect and 100 is complete control

CC(C)N(C(=O)n1oc(=O)n(N(C)C)c1=O)c1ccc(F)cc1 [Compound 170]
Cocklebur plant response rating (cocklebur; [3]): 0
Cocklebur plant response rating (cocklebur; [4]): 0
Cocklebur plant response rating (0 to 10 scale) (cocklebur; [5]): 0
Cocklebur plant response rating (cocklebur; [6]): 0
Cocklebur plant response rating (cocklebur; [7]): 9
Cocklebur plant response rating (cocklebur; [8]): 0
Plant response rating, Cocklebur (cocklebur; [9]): 0
Cocklebur plant response rating (cocklebur; [10]): 0
Sugarbeets plant response rating (sugar beet; [3]): 0
Sugarbeets plant response rating (sugar beet; [4]): 4
Sugarbeets plant response rating (0 to 10 scale) (sugar beet; [5]): 8
Sugarbeets plant response rating (sugar beet; [6]): 8
Sugarbeets plant response rating (sugar beet; [7]): 10
Sugarbeets plant response rating (sugar beet; [8]): 0
Plant response rating, Sugarbeets (sugar beet; [9]): 2
Sugarbeets plant response rating (sugar beet; [10]): 4
S. Flatsedge plant response rating (smallflower flatsedge; [11]): 0
S. Flatsedge plant response rating (smallflower flatsedge; [12]): 0
Plant response rating, S. Flatsedge (smallflower flatsedge; [13]): 0
S. Flatsedge plant response rating (smallflower flatsedge; [14]): 0
Barnyardgrass plant response rating (bamyardgrass; [11]): 0
Barnyardgrass plant response rating (bamyardgrass; [12]): 0
Plant response rating, Barnyardgrass (bamyardgrass; [13]): 0
Barnyardgrass plant response rating (bamyardgrass; [14]): 0
Plant response rating, Guineagrass (guineagrass; [15]): 0
Plant response rating, Guineagrass (guineagrass; [16]): 85
Plant response rating, Guineagrass (guineagrass; [17]): 98
Plant response rating, Guineagrass (guineagrass; [18]): 100
Plant response rating, Guineagrass (guineagrass; Rate 250 g/ha): 100
Plant response rating, Guineagrass (guineagrass; Rate 500 g/ha): 100
Plant response rating, Tall Mallow (tall mallow; [15]): 30
Plant response rating, Tall Mallow (tall mallow; [16]): 30
Tall Mallow plant response rating (tall mallow; [17]): 30
Tall Mallow plant response rating (tall mallow; [18]): 30
Plant response rating, Tall Mallow (tall mallow; Rate 250 g/ha): 40
Plant response rating, Tall Mallow (tall mallow; Rate 500 g/ha): 45
Plant response rating, Wheat (winter) (winter wheat [1]; Rate 62 g/ha): 80
Plant response rating, Wheat (winter) (winter wheat [1]; Rate 125 g/ha): 75
Plant response rating, Blackgrass (blackgrass; [19]): 60
Plant response rating, Blackgrass (blackgrass; [20]): 60
Blackgrass plant response rating (0 to 100 scale) (blackgrass): 85
Plant response rating, Green foxtail (green foxtail; [19]): 100
Plant response rating, Green foxtail (green foxtail; [20]): 100
Green foxtail plant response rating (0 to 100 scale) (green foxtail): 100
Plant response rating, I. Ryegrass (Italian ryegrass; [19]): 60
Plant response rating, I. Ryegrass (Italian ryegrass; [20]): 70
I. Ryegrass plant response rating (0 to 100 scale) (Italian ryegrass): 70
Plant response rating, Wheat (winter) (winter wheat [2]; [19]): 70
Plant response rating, Wheat (winter) (winter wheat [2]; [20]): 70
Wheat (winter) plant response rating (0 to 100 scale) (winter wheat [2]): 70
Plant response rating, Wild oat (wild oat; [19]): 65
Plant response rating, Wild oat (wild oat; [20]): 70
Wild oat plant response rating (0 to 100 scale) (wild oat): 70
Plant response rating, Barley (winter) (winter barley; [19]): 60
Plant response rating, Barley (winter) (winter barley; [20]): 60
Barley (winter) plant response rating (0 to 100 scale) (winter barley): 70

CC(C)N(C(=O)n1oc(=O)n(C2CC2)c1=O)c1ccc(F)cc1 [Compound 242]
Cocklebur plant response rating (cocklebur; [4]): 2
Cocklebur plant response rating (cocklebur; Preemergence, Rate 250 g/ha, scale of 0 to 10 where 0 is no effect and 10 is complete control): 2
Plant response rating, Cocklebur (cocklebur; [21]): 3
Cocklebur plant response rating (cocklebur; [8]): 5
Cocklebur plant response rating (cocklebur; Rate 125 g/ha, Postemergence, scale 0 to 10): 5
Plant response rating (0 to 10; 0 is no effect, 10 is complete control), Cocklebur (cocklebur; Rate 250 g/ha, Postemergence): 7
Cocklebur plant response rating (cocklebur; [22]): 7
Sugarbeets plant response rating (sugar beet; [4]): 3
Plant response rating, Sugarbeets (sugar beet; [21]): 8
Sugarbeets plant response rating (sugar beet; [8]): 0
Sugarbeets plant response rating (sugar beet; Rate 125 g/ha, Preemergence, scale of 0 to 10 where 0 is no effect and 10 is complete control): 7
Sugarbeets plant response rating (sugar beet; [22]): 8
S. Flatsedge plant response rating (smallflower flatsedge; [23]): 0
S. Flatsedge plant response rating (smallflower flatsedge; [24]): 0
S. Flatsedge plant response rating (smallflower flatsedge; [25]): 0
S. Flatsedge plant response rating (smallflower flatsedge; [26]): 0
Barnyardgrass plant response rating (bamyardgrass; [23]): 0
Barnyardgrass plant response rating (bamyardgrass; [24]): 0
Barnyardgrass plant response rating (bamyardgrass; [25]): 0
Barnyardgrass plant response rating (bamyardgrass; [26]): 0
Plant response rating, Guineagrass (guineagrass; [15]): 70
Plant response rating, Guineagrass (guineagrass; [16]): 85
Plant response rating, Guineagrass (guineagrass; [17]): 98
Plant response rating, Guineagrass (guineagrass; [18]): 100
Plant response rating, Guineagrass (guineagrass; Rate 250 g/ha): 100
Plant response rating, Guineagrass (guineagrass; Rate 500 g/ha): 100
Plant response rating, Tall Mallow (tall mallow; [15]): 0
Plant response rating, Tall Mallow (tall mallow; [16]): 0
Tall Mallow plant response rating (tall mallow; [17]): 0
Tall Mallow plant response rating (tall mallow; [18]): 0
Plant response rating, Tall Mallow (tall mallow; Rate 250 g/ha): 60
Plant response rating, Tall Mallow (tall mallow; Rate 500 g/ha): 85
Plant response rating, Wheat (winter) (winter wheat [1]; Rate 31 g/ha, 0 no effect, 100 complete control): 55
Plant response rating, Wheat (winter) (winter wheat [1]; Rate 62 g/ha): 65
Plant response rating, Wheat (winter) (winter wheat [1]; Rate 125 g/ha, 0 is no effect, 100 is complete control): 10
Wheat (winter) plant response rating (winter wheat [1]; Rate 250 g/ha, 0 to 100 scale where 0 is no effect and 100 is complete control): 10
Plant response rating, Wheat (winter) (winter wheat [1]; Rate 500 g/ha, 0 is no effect, 100 is complete control): 90
Plant response rating, Blackgrass (blackgrass; [27]): 55
Plant response rating, Blackgrass (blackgrass; [19]): 70
Plant response rating, Blackgrass (blackgrass; [20]): 95
Blackgrass plant response rating (0 to 100 scale) (blackgrass): 100
Plant response rating, Blackgrass (blackgrass; [28]): 98
Plant response rating, Green foxtail (green foxtail; [27]): 50
Plant response rating, Green foxtail (green foxtail; [20]): 70
Green foxtail plant response rating (0 to 100 scale) (green foxtail): 98
Plant response rating, Green foxtail (green foxtail; [28]): 100
Plant response rating, I. Ryegrass (Italian ryegrass; [27]): 65
Plant response rating, I. Ryegrass (Italian ryegrass; [19]): 70
Plant response rating, I. Ryegrass (Italian ryegrass; [20]): 95
I. Ryegrass plant response rating (0 to 100 scale) (Italian ryegrass): 98
Plant response rating, I. Ryegrass (Italian ryegrass; [28]): 100
Plant response rating, Wheat (winter) (winter wheat [2]; [27]): 30
Plant response rating, Wheat (winter) (winter wheat [2]; [19]): 40
Plant response rating, Wheat (winter) (winter wheat [2]; [20]): 65
Wheat (winter) plant response rating (0 to 100 scale) (winter wheat [2]): 55
Plant response rating, Wheat (winter) (winter wheat [2]; [28]): 95
Plant response rating, Wild oat (wild oat; [27]): 50
Plant response rating, Wild oat (wild oat; [19]): 60
Plant response rating, Wild oat (wild oat; [20]): 60
Wild oat plant response rating (0 to 100 scale) (wild oat): 98
Plant response rating, Wild oat (wild oat; [28]): 100
Plant response rating, Barley (winter) (winter barley; [27]): 30
Plant response rating, Barley (winter) (winter barley; [19]): 30
Plant response rating, Barley (winter) (winter barley; [20]): 40
Barley (winter) plant response rating (0 to 100 scale) (winter barley): 60
Plant response rating, Barley (winter) (winter barley; [28]): 85
